Measurements from patent publication US10010541B2, “Modulation of tissue transglutaminase activation in disease” (The Board of Trustees of the Leland Stanford Junior …, priority 2014, dated 2018).
Like-named read-outs stand apart in the source and are kept apart here.

Tests used:
TG2 [1] = biological target: T1, TG2 (Homo sapiens, UniProt P21980); details: cell culture; cited from earlier work
T1 sequence (P21980 1-687): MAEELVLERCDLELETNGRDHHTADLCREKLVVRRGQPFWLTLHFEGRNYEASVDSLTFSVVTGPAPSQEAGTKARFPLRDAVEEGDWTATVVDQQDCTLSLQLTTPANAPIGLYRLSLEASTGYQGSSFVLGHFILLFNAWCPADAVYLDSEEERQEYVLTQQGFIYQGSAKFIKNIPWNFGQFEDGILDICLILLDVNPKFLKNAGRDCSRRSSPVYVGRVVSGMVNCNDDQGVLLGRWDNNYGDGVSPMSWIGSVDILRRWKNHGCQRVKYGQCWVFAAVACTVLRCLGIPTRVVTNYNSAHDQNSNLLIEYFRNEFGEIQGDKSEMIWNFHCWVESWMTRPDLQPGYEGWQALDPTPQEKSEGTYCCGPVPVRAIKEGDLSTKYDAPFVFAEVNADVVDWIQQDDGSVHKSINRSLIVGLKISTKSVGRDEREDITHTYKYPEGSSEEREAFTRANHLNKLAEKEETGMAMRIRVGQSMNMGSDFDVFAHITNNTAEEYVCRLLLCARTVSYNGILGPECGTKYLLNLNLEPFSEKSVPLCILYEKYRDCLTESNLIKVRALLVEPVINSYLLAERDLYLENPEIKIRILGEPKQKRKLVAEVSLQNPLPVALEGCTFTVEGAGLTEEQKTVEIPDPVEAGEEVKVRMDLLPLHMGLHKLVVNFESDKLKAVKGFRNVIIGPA

TG2 [2] = biological target: T1, TG2; details: cited from earlier work
[3] = test system: proinflammatory cytokines IL-6, PAI-1 and MIP1α; experiment: circulating proinflammatory cytokines in LPS-induced murine sepsis (ELISA); assay type: in vivo, mice; details: septic mice (LPS 5 mg/kg iv); 1.5 mg/kg ip level; plasma at 3 hours
Description: FIG. 3: The TG2 inhibitor CK996 reduces the proinflammatory cytokine load in septic mice at doses as low as 1.5 mg/kg: The graphs display the absolute circulating levels of the proinflammatory cytokines IL-6, PAI-1 and MIP1α in septic male BL6 mice as a function of the dose of intraperitoneally administered CK996 or ERW1041E. In each graph, the right y-axis depicts the relative levels of the respective cytokines over their background level in our control cohort. All septic mice in this study received lipopolysaccharide (LPS, 5 mg/kg i.v., at t=0) and either a TG2 inhibitor (CK996 or ERW1041E at 50, 15, 5.0 and 1.5 mg/kg i.p., at t=0 and 60 min) in vehicle (PBS with 5% DMSO, 2% Tween-80 and 2.5% hydroxypropyl-beta-cyclodextrin) or, for the septic control cohort, vehicle alone. An additional cohort defining the baseline cytokine levels received only intravenous vehicle and intraperitoneal inhibitor vehicle, respectively. At 3 hours the mice were euthanized and plasma collected in lithium heparin tubes. The levels of the respective proinflammatory cytokines were quantified using commercial ELISA kits according to the manufacturers' instructions. […]
Having established that intraperitoneal administration of CK996 could suppress TG2 activity in septic mice, we next sought to determine whether this pharmacologic intervention had any effect on the circulating levels of the key proinflammatory cytokines in sepsis. To this end, we administered CK996 in doses of 1.5, 5.0, 15 or 50 mg/kg intraperitoneally to septic mice (5 mg/kg LPS, iv) and measured the level of the proinflammatory cytokines IL-6, PAI-1 and MIP1α in plasma that was collected at 3 hours after infusion of LPS.
We therefore co-administered recombinant human thioredoxin protein (10 mg/kg, ip) along with CK996 (50 mg/kg, ip) to septic mice (5 mg/kg, iv) and quantified the load of proinflammatory cytokines as above.

TG1 = biological target: T2, TG1 (Homo sapiens, UniProt P22735); details: cited from earlier work
T2 sequence (P22735 1-817): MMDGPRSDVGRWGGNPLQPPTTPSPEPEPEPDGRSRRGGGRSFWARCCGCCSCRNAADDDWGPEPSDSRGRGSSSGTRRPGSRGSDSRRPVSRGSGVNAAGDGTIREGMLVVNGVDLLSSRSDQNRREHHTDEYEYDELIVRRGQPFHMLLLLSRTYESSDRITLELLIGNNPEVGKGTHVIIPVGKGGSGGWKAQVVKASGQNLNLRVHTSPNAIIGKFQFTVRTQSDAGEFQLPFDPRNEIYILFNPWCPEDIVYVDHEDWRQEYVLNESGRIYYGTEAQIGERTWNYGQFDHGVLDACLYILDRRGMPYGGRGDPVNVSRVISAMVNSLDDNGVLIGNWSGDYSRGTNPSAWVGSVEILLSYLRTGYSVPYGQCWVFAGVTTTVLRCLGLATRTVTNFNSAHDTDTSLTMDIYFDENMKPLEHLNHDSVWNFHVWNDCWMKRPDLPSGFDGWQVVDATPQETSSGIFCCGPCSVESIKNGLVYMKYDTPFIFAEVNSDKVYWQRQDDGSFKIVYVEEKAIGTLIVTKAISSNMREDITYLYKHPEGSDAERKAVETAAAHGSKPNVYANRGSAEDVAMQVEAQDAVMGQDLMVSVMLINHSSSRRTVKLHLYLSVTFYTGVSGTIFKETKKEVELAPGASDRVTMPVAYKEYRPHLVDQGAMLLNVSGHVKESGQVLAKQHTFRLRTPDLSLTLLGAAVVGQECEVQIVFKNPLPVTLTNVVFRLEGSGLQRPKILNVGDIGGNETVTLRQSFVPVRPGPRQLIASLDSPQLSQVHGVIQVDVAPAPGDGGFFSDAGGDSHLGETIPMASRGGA

TG2 [4] = biological target: T3, TG2 (Mus musculus, UniProt P21981); details: poly-I:C induced intestinal injury in mice; cited from earlier work
T3 construct: host or cells: mice (in vivo)
T3 sequence (P21981 1-686): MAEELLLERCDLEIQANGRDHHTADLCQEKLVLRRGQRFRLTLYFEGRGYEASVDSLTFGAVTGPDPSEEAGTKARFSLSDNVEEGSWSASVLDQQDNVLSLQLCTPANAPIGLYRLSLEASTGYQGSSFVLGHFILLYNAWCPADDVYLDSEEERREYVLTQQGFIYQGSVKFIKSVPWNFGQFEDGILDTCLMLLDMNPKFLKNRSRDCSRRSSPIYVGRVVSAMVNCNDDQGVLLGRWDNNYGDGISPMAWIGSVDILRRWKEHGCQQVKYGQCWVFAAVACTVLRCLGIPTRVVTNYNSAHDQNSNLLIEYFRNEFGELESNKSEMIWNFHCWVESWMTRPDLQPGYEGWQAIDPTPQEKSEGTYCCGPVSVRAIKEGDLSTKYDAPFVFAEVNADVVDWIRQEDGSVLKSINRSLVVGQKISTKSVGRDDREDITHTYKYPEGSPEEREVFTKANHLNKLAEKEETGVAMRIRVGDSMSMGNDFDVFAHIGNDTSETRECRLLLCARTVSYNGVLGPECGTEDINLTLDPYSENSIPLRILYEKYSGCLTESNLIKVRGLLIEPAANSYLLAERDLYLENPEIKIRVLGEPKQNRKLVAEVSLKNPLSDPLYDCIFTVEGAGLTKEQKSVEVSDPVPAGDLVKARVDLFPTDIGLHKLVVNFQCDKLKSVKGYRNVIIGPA

TG2 [5] = biological target: T3, TG2; details: cited from earlier work

## O=C(NC[C@@H]1CC(Br)=NO1)[C@@H]1CCCN1C(=O)OCc1cnc2ccccc2c1 [ERW1041E]
TG2 [1]
  catalytic activity of TG2: capable of blocking the catalytic activity of TG2
TG2 [2]
  potency as inhibitor of TG2: moderately potent
[3]
  circulating levels of IL-6, PAI-1 and MIP1α: no effect
TG1
  potency against TG1 relative to TG2: comparably potent
TG2 [4]
  catalytic activity of TG2: capable of blocking the catalytic activity of TG2
TG2 [5]; hypoxia-induced murine pulmonary hypertension
  catalytic activity of TG2: capable of blocking the catalytic activity of TG2
TG2 [5]; twice daily administration for several weeks
  tolerability: well tolerated
